Assay results: patent publication US8703957B2 (Janssen Pharmaceutica NV, priority 2001, dated 2014)

What was measured:
[1] = target: T1, human neutrophil cathepsin G (Homo sapiens, UniProt P08311); experiment: Enzyme-catalyzed hydrolysis assay, cathepsin G (chromogenic substrate Suc-Ala-Ala-Pro-Phe-pNa); assay type: biochemical; conditions: 70 nM enzyme, 5 mM substrate, pH 7.4, 37° C., 30 minutes; read-out: IC50 (μM) CatG
T1 construct: human neutrophil cathepsin G (Athens Research and Technology); purchased Athens Research and Technology; host or cells: human neutrophils (from the enzyme's name)
T1 sequence (P08311 21-243 limits assumed): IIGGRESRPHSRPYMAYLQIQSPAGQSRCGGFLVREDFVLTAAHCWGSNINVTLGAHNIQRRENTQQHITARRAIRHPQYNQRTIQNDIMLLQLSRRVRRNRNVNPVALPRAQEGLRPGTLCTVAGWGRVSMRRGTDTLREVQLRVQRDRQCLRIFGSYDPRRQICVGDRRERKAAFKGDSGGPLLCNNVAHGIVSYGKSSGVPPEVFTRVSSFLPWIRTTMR
Description: (§1) Enzyme-catalyzed hydrolysis rates were measured spectrophotometrically using human neutrophil cathepsin G (Athens Research and Technology) or human skin chymase (Cortex Biochem), a chromogenic substrate (Suc-Ala-Ala-Pro-Phe-pNa) (Bachem) in aqueous buffer (100 mM Hepes, 500 mM NaCl, pH 7.4 for catG; 450 mM Tris, 1800 mM NaCl, pH 8.0 for chymase), and a microplate reader (Molecular Devices). […] Percent inhibition was calculated by comparing the initial reaction slopes of the samples without inhibitor to those with inhibitor. IC50 values were determined using a four parameter fit logistics model. The term “NT” indicates a compound that was not tested.

human skin chymase = target: T2, human skin chymase (Homo sapiens, UniProt P23946); experiment: Enzyme-catalyzed hydrolysis assay, chymase (chromogenic substrate Suc-Ala-Ala-Pro-Phe-pNa); assay type: biochemical; conditions: 10 nM enzyme, 0.7 mM substrate, pH 8.0, 37° C., 30 minutes
T2 construct: human skin chymase (Cortex Biochem); purchased Cortex Biochem; host or cells: human skin (from the enzyme's name)
T2 sequence (P23946 22-247): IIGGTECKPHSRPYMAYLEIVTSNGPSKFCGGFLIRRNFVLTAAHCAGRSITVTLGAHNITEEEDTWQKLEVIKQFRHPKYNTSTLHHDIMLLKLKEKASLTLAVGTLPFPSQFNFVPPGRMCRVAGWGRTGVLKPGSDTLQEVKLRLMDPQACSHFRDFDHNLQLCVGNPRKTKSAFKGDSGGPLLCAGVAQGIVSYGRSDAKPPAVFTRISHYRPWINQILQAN
Description: as §1

| Compound | IC50 [1] | IC50 (human skin chymase) |
| --- | --- | --- |
| CN(C(=O)c1cc2ccccc2cc1C(=O)C(c1cccc2ccccc12)P(=O)(O)O)C1CCN(C(=O)c2ccc3cc(Br)ccc3c2)CC1 (stereo not drawn) [Compound 4] | 0.09 ± 0.02 µM | 0.0039 ± 0.0001 µM |
| CN(C(=O)c1cc2ccccc2cc1C(=O)C(c1cccc2ccccc12)P(=O)(O)O)C1CCN(C(=O)/C=C/c2ccccc2)CC1 (stereo not drawn) [Compound 6, [2-[3-[[methyl[1-[(2E)-1-oxo-3-phenyl-2-propenyl]-4-piperidinyl]amino]carbonyl]-2-naphthalenyl]-1-(1-naphthalenyl)-2-oxoethyl]-phosphonic acid] | 0.067 ± 0.014 µM | 0.0035 ± 0.0015 µM |
| Cc1ccc(/C=C/C(=O)N2CCC(N(C)C(=O)c3cc4ccccc4cc3C(=O)C(c3cccc4ccccc34)P(=O)(O)O)CC2)cc1 (stereo not drawn) [Compound 9, [2-[3-[[methyl[1-[(2E)-3-(4-methylphenyl)-1-oxo-2-propenyl]-4-piperidinyl]amino]carbonyl]-2-naphthalenyl]-1-(1-naphthalenyl)-2-oxoethyl]-phosphonic acid] | 0.053 ± 0.015 µM | 0.011 ± 0.003 µM |
| CN(C(=O)c1cc2ccccc2cc1C(=O)C(c1cccc2ccccc12)P(=O)(O)O)C1CCN(C(=O)/C=C/c2ccc(C(F)(F)F)cc2)CC1 (stereo not drawn) [Compound 10, [2[3-[[methyl[1-[(2E)-1-oxo-3-[4-(trifluoromethyl)-phenyl]-2-propenyl]-4-piperidinyl]amino]carbonyl]-2-naphthalenyl]-1-(1-naphthalenyl)-2-oxoethyl]-phosphonic acid] | 0.053 ± 0.016 µM | 0.014 ± 0.006 µM |
| CN(C(=O)c1cc2ccccc2cc1C(=O)C(c1ccccc1)P(=O)(O)O)C1CCN(C(=O)c2ccc3ccccc3c2)CC1 (stereo not drawn) [Compound 11, [2-[3-[[methyl[1-(2-naphthalenylcarbonyl)-4-piperidinyl]amino]carbonyl]-2-naphthalenyl]-2-oxo-1-phenylethyl]-phosphonic acid] | 4.9 ± 2.8 µM | 0.032 µM |
| CN(C)c1ccc(C=CC(=O)N2CCC(N(C)C(=O)c3cc4ccccc4cc3C(=O)C(c3cccc4ccccc34)P(=O)(O)O)CC2)cc1 (stereo not drawn) [Compound 13, [2-3-[[[1-[(2E)-3-[4-(dimethylamino)phenyl]-1-oxo-2-propenyl]-4-piperidinyl]methylamino]carbonyl]-2-naphthalenyl]-1-(1-naphthalenyl)-2-oxoethyl]-phosphonic acid] | 0.064 ± 0.008 µM | 0.004 µM |
| CN(C(=O)c1cc2ccccc2cc1C(=O)C(c1cccc2ccccc12)P(=O)(O)O)C1CCN(C(=O)CCc2ccc(C(F)(F)F)cc2)CC1 (stereo not drawn) [Compound 18, [2-[3-[[methyl[1-[1-oxo-3-[4-(trifluoromethyl)phenyl]-propyl]-4-piperidinyl]amino]carbonyl]-2-naphthalenyl]-1-(1-naphthalenyl)-2-oxoethyl]-phosphonic acid] | 0.028 ± 0.006 µM | 0.001 µM |
| CC(C)C(=O)N1CCC(N(C)C(=O)c2cc3ccccc3cc2C(=O)C(c2cccc3ccccc23)P(=O)(O)O)CC1 (stereo not drawn) [Compound 20, [2-[3-[[methyl[1-(2-methyl-1-oxopropyl)-4-piperidinyl]amino]carbonyl]-2-naphthalenyl]-1-(1-naphthalenyl)-2-oxoethyl]-phosphonic acid] | 0.09 ± 0.023 µM | 0.004 ± 0.002 µM |
| COP(=O)(O)C(C(=O)c1cc2ccccc2cc1C(=O)N(C)C1CCN(C(=O)c2ccc3ccccc3c2)CC1)c1cccc2ccccc12 (stereo not drawn) [Compound 23, [2[3-[[methyl[1-(2-naphthalenylcarbonyl)-4-piperidinyl]amino]carbonyl]-2-naphthalenyl]-1-(1-naphthalenyl)-2-oxoethyl]-phosphonic acid methyl ester] | 0.67 µM | 0.416 µM |
| CC1CCC(N(C)C(=O)c2cc3ccccc3cc2C(=O)C(c2cccc3ccccc23)P(=O)(O)O)CC1 (stereo not drawn) [Compound 27, [2-[3-[[methyl(4-methylcyclohexyl)amino]carbonyl]-2-naphthalenyl]-1-(1-naphthalenyl)-2-oxoethyl]-phosphonic acid] | 0.07 ± 0.01 µM | 0.0051 ± 0.0022 µM |
| CN(CC12CC3CC(CC(C3)C1)C2)C(=O)c1cc2ccccc2cc1C(=O)C(c1cccc2ccccc12)P(=O)(O)O (stereo not drawn) [Compound 28, [2-[1-[[methyl(tricyclo[3.3.1^3,7]dec-1-ylmethyl)amino]carbonyl]-2-naphthalenyl]-1-(1-naphthalenyl)-2-oxoethyl]-phosphonic acid] | 0.4 ± 0.09 µM | 0.036 ± 0.011 µM |
| CN(C(=O)c1cc2ccccc2cc1C(=O)C(c1cccc2ccccc12)P(=O)(O)O)C1CC=C(c2ccccc2)CC1 (stereo not drawn) [Compound 29, [2-[3-[[methyl(4-phenyl-3-cyclohexen-1-yl)amino]-carbonyl]-2-naphthalenyl]-1-(1-naphthalenyl)-2-oxoethyl]-phosphonic acid] | 0.15 ± 0.03 µM | 0.0082 ± 0.0028 µM |
| O=C(c1cc2ccccc2cc1C(=O)N1CCN(S(=O)(=O)c2ccc3ccccc3c2)CC1)C(c1cccc2ccccc12)P(=O)(O)O (stereo not drawn) [Compound 35] | 0.56 ± 0.18 µM | – |
| O=C(c1cc2ccccc2cc1C(=O)N1CCN(C(=O)Cc2ccc3ccccc3c2)CC1)C(c1cccc2ccccc12)P(=O)(O)O (stereo not drawn) [Compound 37] | 0.74 ± 0.29 µM | – |
| O=C(c1cc2ccccc2cc1C(=O)N1CCN(C(=O)c2ccc3ccccc3c2)CC1)C(c1cccc2ccccc12)P(=O)(O)O (stereo not drawn) [Compound 38] | 0.78 ± 0.22 µM | – |
| COc1ccc(N2CCN(C(=O)c3cc4ccccc4cc3C(=O)C(c3cccc4ccccc34)P(=O)(O)O)CC2)cc1 (stereo not drawn) [Compound 40] | 0.17 ± 0.05 µM | – |
| O=C(NCc1ccc(S(=O)(=O)N2CCN(C(=O)c3cc4ccccc4cc3C(=O)C(c3cccc4ccccc34)P(=O)(O)O)CC2)s1)c1ccccc1 (stereo not drawn) [Compound 41] | 0.31 µM | – |
| O=C(c1cc2ccccc2cc1C(=O)N1CCN(S(=O)(=O)c2c(Cl)nc3sccn23)CC1)C(c1cccc2ccccc12)P(=O)(O)O (stereo not drawn) [Compound 42] | 0.14 ± 0.03 µM | – |
| O=C(c1cc2ccccc2cc1C(=O)N1CCN(C(=O)Nc2ccc3ccccc3c2)CC1)C(c1cccc2ccccc12)P(=O)(O)O (stereo not drawn) [Compound 43] | 0.95 ± 0.21 µM | – |

Continued, values first:

| IC50 [1] | IC50 (human skin chymase) | Compound |
| --- | --- | --- |
| 0.083 ± 0.014 µM | 0.0053 ± 0.0019 µM | CN(C(=O)c1cc2ccccc2cc1C(=O)C(c1cccc2ccccc12)P(=O)(O)O)C1CCC(c2ccccc2)CC1 (stereo not drawn) [Compound 1, [2-[3-[[methyl(4-phenylcyclohexyl)amino]carbonyl]-2-naphthalenyl]-1-(1-naphthalenyl)-2-oxoethyl]-phosphonic acid] |
| 0.21 ± 0.05 µM | 0.008 ± 0.022 µM | O=C(c1cc2ccccc2cc1C(=O)N1CCC(c2ccccc2)CC1)C(c1cccc2ccccc12)P(=O)(O)O (stereo not drawn) [Compound 7, [1-(1-naphthalenyl)-2-oxo-2-[3-[(4-phenyl-1-piperidinyl)carbonyl]-2-naphthalenyl]ethyl]-phosphonic acid] |
| 0.13 ± 0.01 µM | 0.0074 ± 0.0022 µM | O=C(c1cc2ccccc2cc1C(=O)N1CCC2(CC1)C(=O)NCN2c1ccccc1)C(c1cccc2ccccc12)P(=O)(O)O (stereo not drawn) [Compound 8, [1-(1-naphthalenyl)-2-oxo-2-[3-[(4-oxo-1-phenyl-1,3,8-triazaspiro[4.5]dec-8-yl)carbonyl]-2-naphthalenyl]ethyl]-phosphonic acid] |
| 0.179 ± 0.038 µM | 0.0073 ± 0.0017 µM | COc1ccc(C2CCN(C(=O)c3cc4ccccc4cc3C(=O)C(c3cccc4ccccc34)P(=O)(O)O)CC2)cc1 (stereo not drawn) [Compound 12, [2-[3-[[4-(4-methoxyphenyl)-1-piperidinyl]carbonyl]-2-naphthalenyl]-1-(1-naphthalenyl)-2-oxoethyl]-phosphonic acid] |
| 0.23 ± 0.03 µM | 0.01 ± 0.001 µM | COc1cccc(C2CCN(C(=O)c3cc4ccccc4cc3C(=O)C(c3cccc4ccccc34)P(=O)(O)O)CC2)c1 (stereo not drawn) [Compound 14, [2-[3-[[4-(3-methoxyphenyl)-1-piperidinyl]carbonyl]-2-naphthalenyl]-1-(1-naphthalenyl)-2-oxoethyl]-phosphonic acid] |
| – | 0.017 ± 0.005 µM | CN(C(=O)c1cc2ccccc2cc1C(=O)C(c1cccc2ccccc12)P(=O)(O)O)C1CCN(C(=O)c2ccccc2)CC1 (stereo not drawn) [Compound 15] |
| 0.19 ± 0.02 µM | 0.0085 ± 0.0023 µM | O=C(c1cc2ccccc2cc1C(=O)N1CCC(c2nc3ccccc3s2)CC1)C(c1cccc2ccccc12)P(=O)(O)O (stereo not drawn) [Compound 16, [2-[3-[[4-(2-benzothiazolyl)-1-piperidinyl]carbonyl]-2-naphthalenyl]-1-(1-naphthalenyl)-2-oxoethyl]-phosphonic acid] |
| 0.238 ± 0.03 µM | 0.022 ± 0.062 µM | O=C(c1cc2ccccc2cc1C(=O)N1CCC(c2ccccc2)C1)C(c1cccc2ccccc12)P(=O)(O)O (stereo not drawn) [Compound 19, [1-(1-naphthalenyl)-2-oxo-2-[3-[(3-phenyl-1-pyrrolidinyl)carbonyl]-2-naphthalenyl]ethyl]-phosphonic acid] |
| 0.156 ± 0.028 µM | 0.0097 ± 0.0035 µM | O=C(c1cc2ccccc2cc1C(=O)N1CCC(CCc2ccccc2)C1)C(c1cccc2ccccc12)P(=O)(O)O (stereo not drawn) [Compound 25, [1-(1-naphthalenyl)-2-oxo-2-[3-[[3-(2-phenylethyl)-1-pyrrolidinyl]carbonyl]-2-naphthalenyl]ethyl]-phosphonic acid] |
